Source: US9890153B2, “Substituted 1H-pyrrolo [2, 3-b] pyridine and 1H-pyrazolo [3, 4-b] pyridine derivatives as salt inducible kinase 2 (SIK2) inhibitors” (Arrien Pharmaceuticals LLC, priority 2012, dated 2018)
Where two headings read alike, the source gives them in different places.

Assays:
Type in all cases: biochemical
SIK1 (SEQ ID NO: 10) = molecular target: T1, SIK1 (SEQ ID NO: 10) (Homo sapiens, UniProt P57059); test: Protein kinase assay, SIK1; settings: read-out: SIK1 (SEQ ID NO: 10) kinase inhibition result
T1 construct: Reaction Biology Corporation (assay service, HotSpot panel)
T1 sequence (P57059 whole entry): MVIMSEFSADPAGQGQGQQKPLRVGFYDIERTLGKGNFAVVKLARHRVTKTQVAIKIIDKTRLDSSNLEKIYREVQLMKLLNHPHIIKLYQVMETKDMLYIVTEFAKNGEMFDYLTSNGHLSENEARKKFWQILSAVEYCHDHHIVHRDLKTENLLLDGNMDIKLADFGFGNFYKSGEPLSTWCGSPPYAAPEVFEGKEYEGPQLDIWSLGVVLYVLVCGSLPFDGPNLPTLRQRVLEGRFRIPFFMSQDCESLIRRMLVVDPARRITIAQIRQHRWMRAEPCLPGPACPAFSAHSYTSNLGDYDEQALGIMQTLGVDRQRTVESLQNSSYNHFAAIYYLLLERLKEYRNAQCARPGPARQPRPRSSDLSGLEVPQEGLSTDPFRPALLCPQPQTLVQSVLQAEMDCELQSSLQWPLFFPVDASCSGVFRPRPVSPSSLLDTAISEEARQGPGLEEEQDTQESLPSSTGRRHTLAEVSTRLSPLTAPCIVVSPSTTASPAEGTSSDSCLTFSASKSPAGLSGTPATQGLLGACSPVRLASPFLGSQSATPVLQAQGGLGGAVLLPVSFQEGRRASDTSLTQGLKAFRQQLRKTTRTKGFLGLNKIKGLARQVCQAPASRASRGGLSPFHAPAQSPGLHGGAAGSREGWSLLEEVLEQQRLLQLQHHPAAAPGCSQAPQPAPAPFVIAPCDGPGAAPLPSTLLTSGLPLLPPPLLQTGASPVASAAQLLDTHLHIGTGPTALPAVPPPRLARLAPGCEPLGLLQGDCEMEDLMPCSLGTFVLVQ
Method: (§1) Briefly, specific kinase/substrate pairs along with required cofactors were prepared in reaction buffer; 20 mM Hepes (pH 7.5), 10 mMmgCl2, 1 mM EGTA, 0.02% Brij35, 0.02 mg/ml BSA, 0.1 mM Na3VO4, 2 mM DTT, 1% DMSO. Compounds were delivered into the reaction, followed ˜20 min later by addition of a mixture of ATP (Sigma) and 33P ATP (PerkinElmer) to a final concentration of 10 μM. […] IC50 values and curve fits were obtained using Prism (GraphPad Software). Kinome tree representations were prepared using Kinome Mapper (http://www.reactionbiology.com/apps/kinome/mapper/LaunchKinome.htm).

[1] = molecular target: SIK2 (QIK) (SEQ ID NO: 11) (Homo sapiens, UniProt Q9H0K1); test: SIK2 kinase assay (radiometric, 10 μM ATP)
Chain of SIK2 (QIK) (SEQ ID NO: 11) (Q9H0K1 whole entry): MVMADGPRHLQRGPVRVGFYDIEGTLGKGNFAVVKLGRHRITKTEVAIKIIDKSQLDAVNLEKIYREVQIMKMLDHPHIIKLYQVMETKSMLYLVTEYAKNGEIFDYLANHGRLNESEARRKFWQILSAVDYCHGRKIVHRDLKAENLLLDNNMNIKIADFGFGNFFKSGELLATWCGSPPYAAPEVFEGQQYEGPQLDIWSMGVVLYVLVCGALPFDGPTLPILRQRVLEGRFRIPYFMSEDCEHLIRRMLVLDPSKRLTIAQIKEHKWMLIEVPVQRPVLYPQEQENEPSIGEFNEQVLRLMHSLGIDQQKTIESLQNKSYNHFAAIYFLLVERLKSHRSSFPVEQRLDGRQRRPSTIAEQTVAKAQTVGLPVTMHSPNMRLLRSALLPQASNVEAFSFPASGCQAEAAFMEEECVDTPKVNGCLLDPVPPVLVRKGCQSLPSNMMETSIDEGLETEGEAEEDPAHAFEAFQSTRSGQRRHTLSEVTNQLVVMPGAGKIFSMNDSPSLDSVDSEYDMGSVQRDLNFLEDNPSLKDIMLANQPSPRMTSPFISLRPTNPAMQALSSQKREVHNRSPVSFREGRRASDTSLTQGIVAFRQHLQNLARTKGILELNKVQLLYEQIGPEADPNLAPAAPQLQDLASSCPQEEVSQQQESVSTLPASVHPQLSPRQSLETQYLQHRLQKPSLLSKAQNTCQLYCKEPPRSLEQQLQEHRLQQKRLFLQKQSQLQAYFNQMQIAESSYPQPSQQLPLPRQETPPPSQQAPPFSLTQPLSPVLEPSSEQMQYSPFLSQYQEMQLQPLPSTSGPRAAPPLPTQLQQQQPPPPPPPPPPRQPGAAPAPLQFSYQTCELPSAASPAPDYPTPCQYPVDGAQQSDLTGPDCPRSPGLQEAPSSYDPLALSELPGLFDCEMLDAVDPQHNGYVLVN
Method: Procedure: Enzyme was incubated with substrate peptide in reaction buffer in the presence and absence of test compounds or Staurosporine. All additions were done on ice, followed by the addition of ATP mix. Wells were uniformly mixed using an Eppendorff plate shaker and incubated at 30° C. for 20 min, and stopped by the addition of 5 μL of 3% phosphoric acid. Volume was increased to 100 μL by adding 0.8% phosphoric acid which was then transferred to PC filter mats (Millipore), pre-equilibrated with 70% ethanol and water. Plates were washed thrice with 100 μL 0.8% phosphoric acid and dried for an hour at 60° C.

[2] = molecular target: T2, SIK3 (QSK) (SEQ ID NO: 24) (Homo sapiens, UniProt Q9Y2K2); test: Protein kinase assay, SIK3; settings: read-out: SIK3 (QSK) (SEQ ID NO: 24) kinase inhibition result
T2 construct: Reaction Biology Corporation (assay service, HotSpot panel)
T2 sequence (Q9Y2K2 whole entry): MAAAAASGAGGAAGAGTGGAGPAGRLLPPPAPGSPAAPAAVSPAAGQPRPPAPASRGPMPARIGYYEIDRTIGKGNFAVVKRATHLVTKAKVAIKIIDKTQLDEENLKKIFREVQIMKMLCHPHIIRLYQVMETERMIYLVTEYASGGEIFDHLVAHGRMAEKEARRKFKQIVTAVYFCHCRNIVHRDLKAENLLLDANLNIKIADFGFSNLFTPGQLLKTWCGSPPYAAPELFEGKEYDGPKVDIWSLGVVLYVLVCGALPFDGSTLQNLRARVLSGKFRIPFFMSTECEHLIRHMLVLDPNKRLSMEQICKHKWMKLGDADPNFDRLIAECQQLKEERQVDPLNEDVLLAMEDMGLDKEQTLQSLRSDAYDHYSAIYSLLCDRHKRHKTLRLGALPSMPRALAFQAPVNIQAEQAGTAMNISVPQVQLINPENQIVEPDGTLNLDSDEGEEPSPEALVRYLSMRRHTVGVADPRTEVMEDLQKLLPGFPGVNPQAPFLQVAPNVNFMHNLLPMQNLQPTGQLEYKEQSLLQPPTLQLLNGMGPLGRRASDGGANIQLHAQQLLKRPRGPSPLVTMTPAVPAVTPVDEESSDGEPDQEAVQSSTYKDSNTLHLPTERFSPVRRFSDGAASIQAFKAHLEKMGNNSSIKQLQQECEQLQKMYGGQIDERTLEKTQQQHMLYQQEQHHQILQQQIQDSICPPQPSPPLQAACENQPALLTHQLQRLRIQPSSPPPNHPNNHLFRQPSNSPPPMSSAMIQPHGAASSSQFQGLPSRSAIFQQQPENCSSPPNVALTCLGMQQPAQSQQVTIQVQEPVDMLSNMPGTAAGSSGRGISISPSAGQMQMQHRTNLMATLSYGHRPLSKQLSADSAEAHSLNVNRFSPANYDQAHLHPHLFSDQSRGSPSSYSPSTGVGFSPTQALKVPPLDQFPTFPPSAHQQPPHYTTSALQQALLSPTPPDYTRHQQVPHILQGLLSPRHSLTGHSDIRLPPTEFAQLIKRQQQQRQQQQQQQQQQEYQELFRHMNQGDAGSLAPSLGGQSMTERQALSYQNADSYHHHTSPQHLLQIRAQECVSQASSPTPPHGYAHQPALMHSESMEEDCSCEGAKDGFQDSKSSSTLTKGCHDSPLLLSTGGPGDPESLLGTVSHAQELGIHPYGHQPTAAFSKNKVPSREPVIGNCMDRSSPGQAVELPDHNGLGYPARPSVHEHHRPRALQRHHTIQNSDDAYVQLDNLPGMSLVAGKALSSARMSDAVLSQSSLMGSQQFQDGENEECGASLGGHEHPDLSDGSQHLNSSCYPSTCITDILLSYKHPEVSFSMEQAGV
Method: as §1

[3] = read-out: SIK2 (QIK) (SEQ ID NO: 11) kinase inhibition result
[4] = compounds purchased from vendor library, read-out: SIK2 IC50

Compound | IC50 (SIK1 (SEQ ID NO: 10)) [nM] | IC50 [1, 3] [nM] | IC50 [2] [nM] | IC50 [1, 4] [nM]
COc1ccc(-c2n[nH]c3nccc(-c4ccsc4)c23)c(OC)c1 [Example 87, 3-(2,4-dimethoxyphenyl)-4-(thiophen-3-yl)-1H-pyrazolo[3,4-b]pyridine] | > 1000 | > 100 | – | –
O=S(=O)(c1ccc(-c2c[nH]c3nccc(-c4ccsc4)c23)cc1)N1CCCC1 [Example 98, 3-(4-(pyrrolidin-1-ylsulfonyl)phenyl)-4-(thiophen-3-yl)-1H-pyrrolo[2,3-b]pyridine] | > 1000 | > 1000 | > 1000 | –
COc1c(F)cc(F)cc1-c1c[nH]c2ncc(-c3ccc(CN4CCCC4)s3)cc12 [Example 177, 3-(3,5-difluoro-2-methoxyphenyl)-5-(5-(pyrrolidin-1-ylmethyl)thiophen-2-yl)-1H-pyrrolo[2,3-b]pyridine] | > 1000 | < 100 | > 100 | –
FC1(F)Oc2cccc(-c3c[nH]c4ncc(-c5ccc(CN6CCCC6)s5)cc34)c2O1 [Example 197, 3-(2,2-difluorobenzo[d][1,3]dioxol-4-yl)-5-(5-(pyrrolidin-1-ylmethyl)thiophen-2-yl)-1H-pyrrolo[2,3-b]pyridine] | > 100 | < 100 | < 100 | –
FC1(F)Oc2cccc(-c3c[nH]c4ncc(-c5ccc(CN6CCCCC6)s5)cc34)c2O1 [Example 198, 3-(2,2-difluorobenzo[d][1,3]dioxol-4-yl)-5-(5-(piperidin-1-ylmethyl)thiophen-2-yl)-1H-pyrrolo[2,3-b]pyridine] | > 100 | < 100 | < 100 | –
c1cnc(N2CCOCC2)c(-c2c[nH]c3nccc(-c4ccsc4)c23)c1 [Example 37, 4-(3-(4-(thiophen-3-yl)-1H-pyrrolo[2,3-b]pyridin-3-yl)pyridin-2-yl)morpholine] | > 100 | > 100 | – | –
N#Cc1ccc(-c2cnc3[nH]cc(-c4cccc(F)c4Cl)c3c2)s1 [Example 132, 5-(3-(2-chloro-3-fluorophenyl)-1H-pyrrolo[2,3-b]pyridin-5-yl)thiophene-2-carbonitrile] | – | > 100 | – | –
COc1ccccc1-c1ccnc2[nH]cc(-c3ccsc3)c12 [Example 30, 4-(2-methoxyphenyl)-3-(thiophen-3-yl)-1H-pyrrolo[2,3-b]pyridine] | – | > 1000 | – | –
FC(F)(F)Oc1ccccc1-c1c[nH]c2nccc(-c3ccsc3)c12 [Example 99, 4-(thiophen-3-yl)-3-(2-(trifluoromethoxy)phenyl)-1H-pyrrolo[2,3-b]pyridine] | – | > 1000 | – | –
COc1c(F)cc(F)cc1-c1c[nH]c2ncc(-c3ccsc3)cc12 [Example 126, 3-(3,5-difluoro-2-methoxyphenyl)-5-(thiophen-3-yl)-1H-pyrrolo[2,3-b]pyridine] | – | > 1000 | – | –
COc1ncccc1-c1c[nH]c2nccc(-c3ccsc3)c12 [Example 36, 3-(2-methoxypyridin-3-yl)-4-(thiophen-3-yl)-1H-pyrrolo[2,3-b]pyridine] | > 100 | > 100 | – | –
COc1c(F)cccc1-c1c[nH]c2ncc(-c3ccsc3)cc12 [Example 125, 3-(3-fluoro-2-methoxyphenyl)-5-(thiophen-3-yl)-1H-pyrrolo[2,3-b]pyridine] | > 1000 | < 100 | – | –
COc1ccc(-c2n[nH]c3nccc(-c4ccsc4)c23)cc1 [Example 7, 3-(4-methoxyphenyl)-4-(thiophen-3-yl)-1H-pyrazolo[3,4-b]pyridine] | – | > 100 | – | –
Clc1ccnc2[nH]cc(-c3ccsc3)c12 [Example 29, 4-chloro-3-(thiophen-3-yl)-1H-pyrrolo[2,3-b]pyridine] | – | > 100 | – | –
Fc1ccc(-c2c[nH]c3ncc(-c4ccsc4)cc23)cc1Cl [Example 140, 3-(3-chloro-4-fluorophenyl)-5-(thiophen-3-yl)-1H-pyrrolo[2,3-b]pyridine] | – | > 1000 | – | –
Clc1ccccc1-c1c[nH]c2ncc(-c3ccsc3)cc12 [Example 139, 3-(2-chlorophenyl)-5-(thiophen-3-yl)-1H-pyrrolo[2,3-b]pyridine] | – | > 1000 | – | –

The next lines start with the values.

IC50 (SIK1 (SEQ ID NO: 10)) [nM] | IC50 [1, 3] [nM] | IC50 [2] [nM] | IC50 [1, 4] [nM] | Compound
> 100 | < 100 | < 100 | – | CS(=O)(=O)N1CCN(c2cnn(-c3cnc4[nH]cc(-c5ccc6c(c5)OC(F)(F)O6)c4c3)c2)CC1 [Example 224, 3-(2,2-difluorobenzo[d][1,3]dioxol-5-yl)-5-(4-(4-(methylsulfonyl)piperazin-1-yl)-1H-pyrazol-1-yl)-1H-pyrrolo[2,3-b]pyridine]
> 1000 | > 1000 | > 1000 | – | CCS(=O)(=O)N1CCC(n2cc(-c3cnc4[nH]cc(-c5ccc6c(c5)OC(F)(F)O6)c4c3)cn2)CC1 [Example 222, 3-(2,2-difluorobenzo[d][1,3]dioxol-5-yl)-5-(1-(1-(ethylsulfonyl)piperidin-4-yl)-1H-pyrazol-4-yl)-1H-pyrrolo[2,3-b]pyridine]
> 100 | < 100 | < 100 | – | CN(C(C)(C)C)S(=O)(=O)c1cccc(-c2cnc3[nH]cc(-c4ccc5c(c4)OC(F)(F)O5)c3c2)c1 [Example 202, N-(tert-butyl)-3-(3-(2,2-difluorobenzo[d][1,3]dioxol-5-yl) 1H-pyrrolo[2,3-b]pyridin-5-yl)-N-methylbenzenesulfonamide]
> 100 | < 100 | < 100 | – | COc1c(F)cc(F)cc1-c1c[nH]c2ncc(-c3cnn(C4CCN(C)CC4)c3)cc12 [Example 212, 3-(3,5-difluoro-2-methoxyphenyl)-5-(1-(1-methylpiperidin-4-yl)-1H-pyrazol-4-yl)-1H-pyrrolo[2,3-b]pyridine]
– | – | – | > 1000 | COc1cc(-c2n[nH]c3nccc(-c4cccc(C(=O)NCCN(C)C)c4)c23)cc(OC)c1OC [compound 4, N-(2-(dimethylamino)ethyl)-3-(3-(3,4,5-trimethoxyphenyl)-1H-pyrazolo[3,4-b]pyridin-4-yl)benzamide]
– | – | – | > 100 | COc1ccc(-c2ccnc3[nH]nc(-c4cccnc4)c23)cc1OC [compound 1, 4-(3,4-dimethoxyphenyl)-3-(pyridin-3-yl)-1H-pyrazolo[3,4-b]pyridine]
> 1000 | – | – | – | COc1c(F)cc(F)cc1-c1c[nH]c2ncc(-c3cnn(C4CCN(S(C)(=O)=O)CC4)c3)cc12 [Example 214, 3-(3,5-difluoro-2-methoxyphenyl)-5-(1-(1-(methylsulfonyl)piperidin-4-yl)-1H-pyrazol-4-yl)-1H-pyrrolo[2,3-b]pyridine]
– | – | – | < 100 | COc1ccccc1-c1n[nH]c2nccc(-c3ccoc3)c12 [compound 10, 4-(furan-3-yl)-3-(2-methoxyphenyl)-1H-pyrazolo[3,4-b]pyridine]
– | – | – | > 1000 | FC(F)(F)c1cccc(-c2ccnc3[nH]nc(-c4ccc5c(c4)OCO5)c23)c1 [compound 2, 3-(benzo[d][1,3]dioxol-5-yl)-4-(3-(trifluoromethyl)phenyl)-1H-pyrazolo[3,4-b]pyridine]
– | – | – | > 100 | COc1cc(-c2n[nH]c3nccc(-c4ccc(C(C)C)cc4)c23)cc(OC)c1OC [compound 6, 4-(4-isopropylphenyl)-3-(3,4,5-trimethoxyphenyl)-1H-pyrazolo[3,4-b]pyridine]
– | – | – | < 100 | COc1ccccc1-c1n[nH]c2nccc(-c3ccsc3)c12 [compound 5, 3-(2-methoxyphenyl)-4-(thiophen-3-yl)-1H-pyrazolo[3,4-b]pyridine]
– | – | – | > 1000 | COc1cc(-c2n[nH]c3nccc(-c4cccc(C(N)=O)c4)c23)cc(OC)c1OC [compound 11, 3-(3-(3,4,5-trimethoxyphenyl)-1H-pyrazolo[3,4-b]pyridin-4-yl)benzamide]
